Measured values from ChEMBL document CHEMBL3832037, “DailyMed|setid=7FCE939E-C38E-497F-BA3F-E7B6BA44BFD9 | SIMVASTATIN - simvastatin tablet, film coated|Contract Pharmacy Services-PA”.
Where “and” joins values, the source holds several entries; their conditions need not be identical. Equal values may be shown once.

What was measured:
[1] = tested on: Homo sapiens; assay: Effect of co-administered drugs on the AUC and Cmax for Simvastatin, and its active metabolite Simvastatin acid. The geometric mean AUC and Cmax ratio (Ratio: with/without co-administered drug) for Simvastatin acid following single dose co-administration of Simvastatin with different drugs.; type: ADME, organism-based; details: in vivo, po, dosed compound id 2, dosed compound name SIMVASTATIN, regimen Single dose, tissue Plasma
[2] = tested on: Homo sapiens; assay: Effect of the co-administered drugs on the AUC and Cmax of simvastatin and simvastatin acid. The geometric mean AUC and Cmax ratio (Ratio: with/without co-administered drug) for simvastatin and simvastatin acid following multpile dose co-administration of simvastatin with different drugs.; type: ADME, organism-based; details: in vivo, po, dose 20 mg, dosed compound id 2, dosed compound name SIMVASTATIN, regimen Every 24h, tissue Plasma
[3] = dose 20 mg, interact cpd dose 2 g
[4] = dose 20 mg, interact cpd dose 237 mL, inter cpd dosed level low, inter cpd dos duration 3 days
[5] = dose 40 mg, interact cpd dose 600 mg, inter cpd dos duration 3 days
[6] = dose 60 mg, interact cpd dose 200 mL, inter cpd dosed level high, inter cpd dos duration 2 days
[7] = dose 80 mg, interact cpd dose 10 mg, inter cpd dos duration 10 days
[8] = dose 80 mg, interact cpd dose 120 mg, inter cpd dos duration 10 days
[9] = dose 80 mg, interact cpd dose 160 mg, inter cpd dos duration 14 days, study dosing duration 7 days
[10] = dose 80 mg, interact cpd dose 200 mg, inter cpd dos duration 4 days
[11] = dose 80 mg, interact cpd dose 240 mg, inter cpd dos duration 3 days

| Structure (SMILES) | Ratio AUC [1, 3] | Ratio Cmax [1, 3] | Ratio AUC [1, 4] | Ratio AUC [1, 5] | Ratio Cmax [1, 5] | Ratio AUC [1, 6] | Ratio AUC [1, 7] | Ratio Cmax [1, 7] | Ratio AUC [1, 8] | Ratio Cmax [1, 8] | Ratio AUC [1, 9] | Ratio Cmax [1, 9] | Ratio AUC [1, 10] | Ratio Cmax [1, 10] | Ratio Cmax [1, 11] | Ratio AUC ([1]; dose 80 mg, interact cpd dose 240 mg, inter cpd dos duration 7 days) | Ratio Cmax ([2]; interact cpd dose 200 mg, inter cpd dos duration 4 days) | Ratio AUC ([2]; interact cpd dose 1250 mg, inter cpd dos duration 14 days, study dosing duration 28 days) | Ratio Cmax [1, 6] | Ratio AUC [1, 11] |
| --- | --- | --- | --- | --- | --- | --- | --- | --- | --- | --- | --- | --- | --- | --- | --- | --- | --- | --- | --- | --- |
| CCC(C)(C)C(=O)O[C@H]1C[C@@H](C)C=C2C=C[C@H](C)[C@H](CC[C@@H]3C[C@@H](O)CC(=O)O3)[C@H]21 [SIMVASTATIN] | 1.4 | 1.08 | 1.9 | 1.35 | 0.91 | 16 | 1.77 | 1.47 | 3.1 | 2.88 | 0.89 | 0.83 | 8.9 | 5.3 and 13.1 | 2.1 | 2.5 | 6.2 | 6 |  |  |
| CCC(C)(C)C(=O)O[C@H]1C[C@@H](C)C=C2C=C[C@H](C)[C@H](CC[C@@H](O)C[C@@H](O)CC(=O)O)[C@H]21 [TENIVASTATIN] | 1.6 | 1.84 | 1.3 | 2.85 | 2.18 |  | 1.58 | 1.56 | 2.69 | 2.69 | 0.64 | 0.89 | 12 | 15 and 13.1 | 2.4 |  |  |  | 7 | 2.3 |
